{
  "source": "patent US6358885B1",
  "about": "“Substituted phenylheterocyclic herbicides” (Mississippi State University, priority 1992, dated 2002)",
  "key": {"[1]": {"tested_on": "barnyardgrass", "test": "Test C flood test plant response rating 0 to 100", "format": "in vivo, Echinochloa crus-galli", "summary_of_the_method": "(§1)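 Compounds in non-phytotoxic solvent applied preemergence to sandy loam one day after planting, postemergence at the 1–4 leaf stage, or to ~2.5 cm floodwater over silt loam.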"}, "[2]": {"tested_on": "wild buckwheat", "test": "Test C preemergence/postemergence greenhouse plant response rating 0 to 100", "format": "in vivo, Polygonum convolvulus", "details": "for Plant response rating, Wild buckwheat: 125 g/ha, 0 to 100 scale", "summary_of_the_method": "as §1"}, "[3]": {"tested_on": "wheat", "test": "Test B preemergence/postemergence greenhouse plant response rating 0 to 10", "format": "in vivo, Triticum aestivum", "details": "0 to 10 scale", "summary_of_the_method": "(§2)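 Both application timings were run together: seeds got compound preemergence, and established seedlings (two to eighteen cm) got it postemergence. Non-phytotoxic solvent carried the chemical. Ratings are visual, versus controls, at twelve to sixteen days.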"}, "[4]": {"tested_on": "sugar beet", "test": "Test B preemergence/postemergence greenhouse plant response rating 0 to 10", "format": "in vivo, Beta vulgaris", "details": "0 to 10 scale", "summary_of_the_method": "as §2"}, "[5]": {"tested_on": "rape", "test": "Test C preemergence/postemergence greenhouse plant response rating 0 to 100", "format": "in vivo, Brassica napus", "details": "for Plant response rating, Rape: 125 g/ha, 0 to 100 scale", "summary_of_the_method": "as §1"}, "[6]": {"tested_on": "blackgrass", "test": "Test B preemergence/postemergence greenhouse plant response rating 0 to 10", "format": "in vivo, Alopecurus myosuroides", "details": "0 to 10 scale", "summary_of_the_method": "as §2"}, "[7]": {"tested_on": "ryegrass", "test": "Test C preemergence/postemergence greenhouse plant response rating 0 to 100", "format": "in vivo, Lolium multiflorum", "details": "for Plant response rating Ryegrass: 125 g/ha, 0 to 100 scale", "summary_of_the_method": "as §1"}, "[8]": {"tested_on": "wheat", "test": "Test C preemergence/postemergence greenhouse plant response rating 0 to 100", "format": "in vivo, Triticum aestivum", "details": "for Plant response rating, Wheat: 125 g/ha, 0 to 100 scale", "summary_of_the_method": "as §1"}, "[9]": {"tested_on": "wild oat", "test": "Test B preemergence/postemergence greenhouse plant response rating 0 to 10", "format": "in vivo, Avena fatua", "details": "0 to 10 scale", "summary_of_the_method": "as §2"}, "[10]": {"tested_on": "bedstraw", "test": "Test B preemergence/postemergence greenhouse plant response rating 0 to 10", "format": "in vivo, Galium aparine", "details": "POSTEMERGENCE, Rate 50 g/ha; 0 to 10 scale", "summary_of_the_method": "as §2"}},
  "data": [
    {"compound": "Fc1cc(Cl)ccc1-c1nn2c(c1Br)CCCC2", "note": "[Compound 52]", "values": [
      {"measurement": "Plant response rating (0 to 100), Barnyardgrass 2", "setting": "[1]; POSTEMERGENCE section, flood test, Rate 2 g/ha", "result": 25},
      {"measurement": "Plant response rating (0 to 100), Barnyardgrass 2", "setting": "[1]; Rate 8 g/ha, under POSTEMERGENCE head (flood test species)", "result": 95},
      {"measurement": "Plant response rating (0 to 100), Barnyardgrass 2", "setting": "[1]; Rate 31 g/ha, under POSTEMERGENCE head (flood test species)", "result": 100},
      {"measurement": "Plant response rating Barnyardgrass 2", "setting": "[1]; flood test species listed under POSTEMERGENCE, 125 g/ha, 0 to 100 scale", "result": 100},
      {"measurement": "Plant response rating, Wild buckwheat", "setting": "[2]; POSTEMERGENCE", "result": 100},
      {"measurement": "Plant response rating, Wild buckwheat", "setting": "[2]; PREEMERGENCE", "result": 100},
      {"measurement": "Plant response rating (0 to 100), Wild buckwheat", "setting": "[2]; PREEMERGENCE, Rate 2 g/ha", "result": 0},
      {"measurement": "Plant response rating (0 to 100), Wild buckwheat", "setting": "[2]; Rate 8 g/ha, POSTEMERGENCE", "result": 40},
      {"measurement": "Plant response rating (0 to 100), Wild buckwheat", "setting": "[2]; Rate 8 g/ha, PREEMERGENCE", "result": 0},
      {"measurement": "Plant response rating (0 to 100), Wild buckwheat", "setting": "[2]; Rate 31 g/ha, POSTEMERGENCE", "result": 80},
      {"measurement": "Plant response rating (0 to 100), Wild buckwheat", "setting": "[2]; Rate 31 g/ha, PREEMERGENCE", "result": 10},
      {"measurement": "Plant response rating, Wheat", "setting": "[3]; POSTEMERGENCE, Rate 50 g/ha", "result": 4},
      {"measurement": "Plant response rating, Wheat", "setting": "[3]; PREEMERGENCE, Rate 50 g/ha", "result": 4},
      {"measurement": "Plant response rating, Wheat", "setting": "[3]; Rate 200 g/ha, POSTEMERGENCE", "result": 8},
      {"measurement": "Plant response rating, Wheat", "setting": "[3]; Rate 200 g/ha, PREEMERGENCE", "result": 7},
      {"measurement": "Plant response rating, Sugar beet", "setting": "[4]; POSTEMERGENCE, Rate 50 g/ha", "result": 10},
      {"measurement": "Plant response rating, Sugar beet", "setting": "[4]; PREEMERGENCE, Rate 50 g/ha", "result": 9},
      {"measurement": "Plant response rating, Sugar beet", "setting": "[4]; Rate 200 g/ha, PREEMERGENCE", "result": 10},
      {"measurement": "Plant response rating, Rape", "setting": "[5]; POSTEMERGENCE", "result": 100},
      {"measurement": "Plant response rating (0 to 100), Rape", "setting": "[5]; POSTEMERGENCE, Rate 2 g/ha", "result": 10},
      {"measurement": "Plant response rating, Rape", "setting": "[5]; PREEMERGENCE", "result": 60},
      {"measurement": "Plant response rating (0 to 100), Rape", "setting": "[5]; PREEMERGENCE, Rate 2 g/ha", "result": 0},
      {"measurement": "Plant response rating (0 to 100), Rape", "setting": "[5]; Rate 8 g/ha, POSTEMERGENCE", "result": 40},
      {"measurement": "Plant response rating (0 to 100), Rape", "setting": "[5]; Rate 8 g/ha, PREEMERGENCE", "result": 0},
      {"measurement": "Plant response rating (0 to 100), Rape", "setting": "[5]; Rate 31 g/ha, POSTEMERGENCE", "result": 70},
      {"measurement": "Plant response rating (0 to 100), Rape", "setting": "[5]; Rate 31 g/ha, PREEMERGENCE", "result": 10},
      {"measurement": "Plant response rating, Blackgrass", "setting": "[6]; POSTEMERGENCE, Rate 50 g/ha", "result": 4},
      {"measurement": "Plant response rating, Blackgrass", "setting": "[6]; POSTEMERGENCE, Rate 200 g/ha", "result": 5},
      {"measurement": "Plant response rating, Blackgrass", "setting": "[6]; PREEMERGENCE, Rate 50 g/ha", "result": 4},
      {"measurement": "Plant response rating, Blackgrass", "setting": "[6]; Rate 200 g/ha, PREEMERGENCE", "result": 6},
      {"measurement": "Plant response rating Ryegrass", "setting": "[7]; POSTEMERGENCE", "result": 60},
      {"measurement": "Plant response rating (0 to 100), Ryegrass", "setting": "[7]; POSTEMERGENCE, Rate 2 g/ha", "result": 10},
      {"measurement": "Plant response rating Ryegrass", "setting": "[7]; PREEMERGENCE", "result": 50},
      {"measurement": "Plant response rating (0 to 100), Ryegrass", "setting": "[7]; PREEMERGENCE, Rate 2 g/ha", "result": 0},
      {"measurement": "Plant response rating (0 to 100), Ryegrass", "setting": "[7]; Rate 8 g/ha, POSTEMERGENCE", "result": 20},
      {"measurement": "Plant response rating (0 to 100), Ryegrass", "setting": "[7]; Rate 8 g/ha, PREEMERGENCE", "result": 0},
      {"measurement": "Plant response rating (0 to 100), Ryegrass", "setting": "[7]; Rate 31 g/ha, POSTEMERGENCE", "result": 40},
      {"measurement": "Plant response rating (0 to 100), Ryegrass", "setting": "[7]; Rate 31 g/ha, PREEMERGENCE", "result": 10},
      {"measurement": "Plant response rating, Wheat", "setting": "[8]; POSTEMERGENCE", "result": 50},
      {"measurement": "Plant response rating (0 to 100), Wheat", "setting": "[8]; POSTEMERGENCE, Rate 2 g/ha", "result": 10},
      {"measurement": "Plant response rating, Wheat", "setting": "[8]; PREEMERGENCE", "result": 60},
      {"measurement": "Plant response rating (0 to 100), Wheat", "setting": "[8]; PREEMERGENCE, Rate 2 g/ha", "result": 0},
      {"measurement": "Plant response rating (0 to 100), Wheat", "setting": "[8]; Rate 8 g/ha, POSTEMERGENCE", "result": 20},
      {"measurement": "Plant response rating (0 to 100), Wheat", "setting": "[8]; Rate 8 g/ha, PREEMERGENCE", "result": 0},
      {"measurement": "Plant response rating (0 to 100), Wheat", "setting": "[8]; Rate 31 g/ha, POSTEMERGENCE", "result": 30},
      {"measurement": "Plant response rating (0 to 100), Wheat", "setting": "[8]; Rate 31 g/ha, PREEMERGENCE", "result": 0},
      {"measurement": "Plant response rating, Wild oat", "setting": "[9]; POSTEMERGENCE, Rate 50 g/ha", "result": 5},
      {"measurement": "Plant response rating, Wild oat", "setting": "[9]; PREEMERGENCE, Rate 50 g/ha", "result": 4},
      {"measurement": "Plant response rating, Wild oat", "setting": "[9]; Rate 200 g/ha, POSTEMERGENCE", "result": 8},
      {"measurement": "Plant response rating, Bedstraw", "setting": "[10]", "result": 10}
    ]}
  ]
}
